Source: ChEMBL document CHEMBL4622859, “Discovery of stereospecific cytotoxicity of (8R,8'R)-trans-arctigenin against insect cells and structure-activity relationship on aromatic ring” (Bioorg Med Chem Lett, 2020)

Assays:
[1] = Cytotoxicity against Spodoptera frugiperda Sf9 cells assessed as reduction in cell viability; assay type: cell-based
[2] = Cytotoxicity against Aedes albopictus NIAS-AeAl-2 cells assessed as reduction in cell viability; assay type: functional, cell-based

Row | SMILES | IC50 [1] [µM] | IC50 [2] [µM]
1 | Cc1ccc(C[C@H]2COC(=O)[C@@H]2Cc2ccc(I)cc2)cc1 | 20 | –
2 | Cc1ccccc1C[C@H]1COC(=O)[C@@H]1Cc1ccc(I)cc1 | 21 | –
3 | Cc1cccc(C[C@H]2COC(=O)[C@@H]2Cc2ccc(I)cc2)c1 | 24 | –
4 | COc1cccc(C[C@H]2C(=O)OC[C@@H]2Cc2ccc(OC)c(OC)c2)c1 | 17 | –
5 | COc1ccc(C[C@H]2COC(=S)[C@@H]2Cc2ccc3c(c2)OCO3)cc1OC | 7.2 | –
6 | COc1ccc(C[C@H]2COC(=O)[C@@H]2Cc2cccc3c2OCO3)cc1OC | 46 | –
7 | COc1ccc(C[C@H]2COC(=O)[C@@H]2Cc2ccccc2I)cc1OC | 18 | –
8 | COc1ccc(C[C@H]2COC(=O)[C@@H]2Cc2ccc(I)cc2)cc1O | 21 | –
9 | COc1cccc(C[C@H]2COC(=O)[C@@H]2Cc2ccc(I)cc2)c1 | 15 | –
10 | COc1ccc(C[C@H]2COC(=O)[C@@H]2Cc2cccc(C)c2)cc1OC | 12 | –
11 | COc1ccc(C[C@H]2COC(=O)[C@@H]2Cc2ccc(Cl)c(Cl)c2)cc1OC | 25 | –
12 | COc1ccc(C[C@@H]2COC(=O)[C@H]2Cc2ccc(O)cc2)cc1OC | 29 | –
13 | O=C1OC[C@H](Cc2ccccc2)[C@H]1Cc1ccc(I)cc1 | 24 | –
14 | COc1ccc(C[C@H]2COC(=O)[C@@H]2Cc2ccc(C(C)(C)C)cc2)cc1OC | 17 | –
15 | O=C1OC[C@H](Cc2cccc(Cl)c2)[C@H]1Cc1ccc(I)cc1 | 27 | –
16 | O=C1OC[C@H](Cc2cccc(O)c2)[C@H]1Cc1ccc(I)cc1 | 18 | –
17 | O=C1OC[C@H](Cc2cccc(C(F)(F)F)c2)[C@H]1Cc1ccc(I)cc1 | 19 | –
18 | COc1ccc(C[C@H]2COC(=O)[C@@H]2Cc2ccc3c(c2)OCCO3)cc1OC | 15 | –
19 | COc1ccc(C[C@H]2COC(=O)[C@@H]2Cc2ccc(OC)c(OC)c2)cc1OC | 15 | –

Row | SMILES | IC50 [1] [µM] | IC50 [2] [µM]
20 | O=C1OC[C@H](Cc2ccccc2F)[C@H]1Cc1ccc(I)cc1 | 20 | –
21 | COc1ccc(C[C@@H]2COC(=O)[C@H]2Cc2ccc(C)cc2)cc1OC | 42 | –
22 | COc1cc(C[C@H]2COC(=O)[C@@H]2Cc2ccc(I)cc2)ccc1O | 19 | –
23 | COc1ccc(C[C@H]2COC(=O)[C@@H]2Cc2ccc(F)cc2)cc1OC | 28 | 8.3
24 | COc1ccccc1C[C@H]1COC(=O)[C@@H]1Cc1ccc(I)cc1 | 22 | –
25 | COc1ccc(C[C@H]2COC(=O)[C@@H]2Cc2cccc(O)c2)cc1OC | 22 | –
26 | COc1ccc(C[C@H]2C(=O)OC[C@@H]2Cc2ccc(OC)c(OC)c2)cc1O | 19 | –
27 | COc1ccc(C[C@H]2COC(=O)[C@@H]2Cc2ccccc2C(F)(F)F)cc1OC | 25 | –
28 | O=C1OC[C@H](Cc2ccc3c(c2)OCCO3)[C@H]1Cc1ccc(I)cc1 | 10 | –
29 | COc1ccc(C[C@@H]2COC(=O)[C@H]2Cc2ccc3c(c2)OCO3)cc1OC | 41 | –
30 | O=C1OC[C@H](Cc2ccccc2O)[C@H]1Cc1ccc(I)cc1 | 18 | –
31 | COc1ccc(C[C@H]2COC(=O)[C@@H]2Cc2ccc(Cl)cc2)cc1OC | 10 | 2.3
32 | COc1ccc(C[C@H]2COC(=O)[C@@H]2Cc2cccc(Cl)c2)cc1OC | 17 | –
33 | COc1ccc(C[C@H]2COC(=O)[C@@H]2Cc2ccc(Br)cc2)cc1OC | 9.1 | –
34 | COc1ccc(C[C@@H]2COC(=O)[C@H]2Cc2ccc(I)cc2)cc1OC | 25 | –
35 | COc1ccc(C[C@H]2COC(=O)[C@@H]2Cc2ccc(C)cc2)cc1OC | 11 | 3.5
36 | COc1ccc(C[C@H]2COC(=O)[C@@H]2Cc2ccc(I)cc2)cc1 | 21 | –
37 | COc1ccc(C[C@H]2COC(=O)[C@@H]2Cc2ccccc2O)cc1OC | 54 | 17
